According to patent US7381743B2, “Macrocycles for the treatment of cancer” (Leibniz-Institut Fuer Pflanzenbiochemie (IPB), priority 2003, dated 2008):
Like-named read-outs stand apart in the source and are kept apart here.

Experiments:
Type in all cases: cell-based
[1] = test system: A 549 lung cancer; experiment: Proliferation assay (acidic phosphatase), A 549; conditions: Homo sapiens, A549, 120 h, read-out: Proliferation assay GI50, IC-50, A 549 lung cancer
Description: (§1) Proliferation assay GI50: acidic phosphatase, incubation period 5 days, IC-50 (μM)

[2] = test system: L 929 mouse fibroblasts; experiment: Proliferation assay (acidic phosphatase), L 929; conditions: L929, 120 h, read-out: Proliferation assay GI50, IC-50, L 929 mouse fibroblasts
Description: as §1

[3] = test system: MCF7 breast cancer; experiment: Proliferation assay (acidic phosphatase), MCF7; conditions: Homo sapiens, read-out: Proliferation assay GI50, IC-50, MCF7 breast cancer
[4] = acidic phosphatase, incubation period 5 days

C/C1=C/C[C@@H](/C(C)=C/c2csc(C)n2)OC(=O)CSC(C)(C)C(=O)[C@H](C)[C@@H](O)[C@@H](C)CCC1 [MC54690, (7R,8S,9S,13Z,16S)-8-hydroxy-5,5,7,9,13-pentamethyl-16-[(E)-1-methyl-2-(2-methyl-1,3-thiazol-4-yl)vinyl]-1-oxa-4-thiacyclohexadec-13-ene-2,6-dione]
IC50 [1]: 9 nM
IC50 [2]: 274 nM
IC50 ([3]; MCF7, 120 h): 45 nM

C/C1=C/C[C@@H](/C(C)=C/c2cccc(C)n2)OC(=O)CSC(C)(C)C(=O)[C@H](C)[C@@H](O)/C(C)=C/CC1 [MC54849, (7R,8R,9E,13Z)-8-Hydroxy-5,5,7,9,13-pentamethyl-16-[(1E)-1-methyl-2-(6-methyl-pyridin-2-yl)-vinyl]-1-oxa-4-thia-cyclohexadec-9,13-dien-2,6-dion]
IC50 ([3]; MCF7, 96 h): 531 nM

C/C1=C/C[C@@H](/C(C)=C/c2csc(C)n2)OC(=O)CS(=O)(=O)C(C)(C)C(=O)[C@H](C)[C@@H](O)[C@@H](C)CCC1 [MC-C5, (7R,8R,9S,13Z)-8-Hydroxy-5,5,7,9,13-pentamethyl-16-[(IE)-1-methyl-2-(2-methyl-thiazol-4-yl)-vinyl]-4,4-dioxo-1-oxa-4-thia-cyclohexadec-13-en-2,6-dion]
IC50 ([3]; MCF7, 120 h): > 10000 nM

CC(=O)O[C@H]1C(=O)[C@@]2(C)[C@H]([C@H](OC(=O)c3ccccc3)[C@]3(O)C[C@H](OC(=O)[C@H](O)[C@@H](NC(=O)c4ccccc4)c4ccccc4)C(C)=C1C3(C)C)[C@]1(OC(C)=O)CO[C@@H]1C[C@@H]2O [Taxol, Paclitaxel, reference compound]
IC50 [1, 4]: 6 nM
IC50 [2, 4]: 270 nM
IC50 ([3]; MCF7, 120 h, acidic phosphatase, incubation period 5 days): 3 nM
